# Laboratory results reported in patent US9006250B2, “4-amino-6-(heterocyclic)picolinates and 6-amino-2-(heterocyclic)pyrimidine-4-carboxylates and their use as herbicides” (Dow AgroSciences, LLC, priority 2013, dated 2015).
# How the values were obtained:
# [1] = system: AVEFA: wild oats (Avena fatua); assay: Post-Emergent Test I herbicidal activity; assay type: in vivo; settings: 4 Kg ai/ha
# Experimental: (§1) Post-Emergent Test I: Seeds test species were obtained from commercial suppliers and planted into a 5″-round pot containing soil-less media mix (Metro-Mix 360®, Sun Gro Horticulture). Postemergence treatments were planted 8-12 days (d) prior to application and cultured in a greenhouse equipped with supplemental light sources to provide a 16 hour (h) photoperiod at 24-29° C. All pots were surface irrigated. Approximately 10 milligrams (mg) of each compound were dissolved in 1.3 mL acetone-DMSO (97:3, v/v) and diluted with 4.1 mL water-isopropanol-crop oil concentrate (78:20:2, v/v/v) containing 0.02% Triton X-155. Treatments were serial diluted with the above formulation solvent to provide 1.85, 0.926, 0.462 and 0.231 mg/mL of test compound delivered in 2.7 mL/pot (roughly equivalent to 4.0, 2.0, 1.0, and 0.5 kg/ha, respectively). Formulated compounds were applied using a DeVilbiss® compressed air sprayer at 2-4 pounds per square inch (psi). Following treatment, pots were returned to the greenhouse for the duration of the experiment. All pots were sub-irrigated as need to provide optimum growing conditions. All pots were fertilized one time per week by subirrigating with Peters Peat-Lite Special® fertilizer (20-10-20). Phytotoxicity ratings were obtained 10 days after treatment postemergence applications. All evaluations were made visually on a scale of 0 to 100 where 0 represents no activity and 100 represents complete plant death. Visual assessments of plant injury were made based on growth reduction, discoloration, leaf deformity and necrosis.
# [2] = system: ECHCG: barnyardgrass (Echinochloa crus-galli); assay: Post-Emergent Test I herbicidal activity; assay type: in vivo; settings: 4 Kg ai/ha
# Experimental: as §1
# [3] = system: IPOHE: ivyleaf morningglory (Ipomoea hederecea); assay: Post-Emergent Test I herbicidal activity; assay type: in vivo; settings: 4 Kg ai/ha
# Experimental: as §1
# [4] = system: SETFA: giant foxtail (Setaria faberi); assay: Post-Emergent Test I herbicidal activity; assay type: in vivo; settings: 4 Kg ai/ha
# Experimental: as §1
# [5] = system: HELAN: sunflower (Helianthus annuus); assay: Post-Emergent Test I herbicidal activity; assay type: in vivo; settings: 4 Kg ai/ha
# Experimental: as §1
Structure (SMILES),Visual Growth Reduction (%) 10 Days After Application AVEFA [1],Visual Growth Reduction (%) 10 Days After Application ECHCG [2],Visual Growth Reduction (%) 10 Days After Application IPOHE [3],Visual Growth Reduction (%) 10 Days After Application SETFA [4],Visual Growth Reduction (%) 10 Days After Application HELAN [5],melting point [°C]
"COC(=O)c1nc(-c2ccc3nonc3c2F)cc(N)c1Cl [Compound 6, Methyl 4-amino-3-chloro-6-(4-fluorobenzo[c][1,2,5]oxadiazol-5-yl)picolinate]",G (0-29),G (0-29),G (0-29),G (0-29),G (0-29),
Nc1cc(-c2cc3nonc3cc2F)nc(C(=O)O)c1Cl [Compound 7],,,,,,177 to 178
